US8124793B2, “Derivatives of ethylene methanedisulfonate as cancer chemotherapeutic agents” (priority 2007, dated 2012)

Legend:
Assay type in all cases: cell-based
[1] = test system: K562; assay: NCI screen, growth of human tumor cells: Leukemia K562; conditions: K562 (Leukemia), 10^−4 molar
Outline: (§1)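 Percent-growth read-out from the NCI cancer cell screen; data annotated by cancer type and molar concentration, ≥60 points per compound.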

[2] = test system: OVCAR-4; assay: NCI screen, growth of human tumor cells: Ovarian Cancer OVCAR-4; conditions: OVCAR-4 (Ovarian Cancer), 10^−4 molar
Outline: as §1

[3] = test system: SNB-75; assay: NCI screen, growth of human tumor cells: CNS Cancer SNB-75; conditions: SNB-75 (CNS Cancer), 10^−4 molar
Outline: as §1

[4] = test system: A498; assay: NCI screen, growth of human tumor cells: Renal Cancer A498; conditions: A498, 10^−4 molar
[5] = test system: SK-MEL-5; assay: NCI screen, growth of human tumor cells: Melanoma SK-MEL-5; conditions: SK-MEL-5, 10^−4 molar
Outline: as §1

[6] = test system: LXFL529; assay: NCI screen, growth of human tumor cells: Non-Small Cell Lung Cancer LXFL529
[7] = test system: COLO205; assay: NCI screen, growth of human tumor cells: Colon Cancer COLO205; conditions: COLO205, 10^−4 molar
Outline: as §1

[8] = test system: OVCAR-8; assay: NCI screen, growth of human tumor cells: Ovarian Cancer OVCAR-8; conditions: OVCAR-8 (Ovarian Cancer), 10^−4 molar
Outline: as §1

[9] = test system: CAKI-1; assay: NCI screen, growth of human tumor cells: Renal Cancer CAKI-1; conditions: CAKI-1, 10^−4 molar
Outline: as §1

[10] = test system: NCI-H226; assay: NCI screen, growth of human tumor cells: Non-Small Cell Lung NCI-H226; conditions: NCI-H226, 10^−4 molar
Outline: as §1

[11] = test system: CCRF-CEM; assay: NCI screen, growth of human tumor cells: Leukemia CCRF-CEM; conditions: CCRF-CEM
Outline: as §1

[12] = test system: SK-MEL-28; assay: NCI screen, growth of human tumor cells: Melanoma SK-MEL-28; conditions: SK-MEL-28 (Melanoma), 10^−4 molar
Outline: as §1

[13] = test system: HCT-116; assay: NCI screen, growth of human tumor cells: Colon Cancer HCT-116; conditions: HCT-116, 10^−4 molar
Outline: as §1

[14] = test system: SN12C; assay: NCI screen, growth of human tumor cells: Renal Cancer SN12C; conditions: SN12C (Renal Cancer), 10^−4 molar
Outline: as §1

[15] = test system: UACC-62; assay: NCI screen, growth of human tumor cells: Melanoma UACC-62; conditions: UACC-62, 10^−4 molar
Outline: as §1

[16] = test system: NCI-H322M; assay: NCI screen, growth of human tumor cells: Non-Small Cell Lung NCI-H322M; conditions: NCI-H322M (Non-Small Cell Lung), 10^−4 molar
Outline: as §1

[17] = test system: TK-10; assay: NCI screen, growth of human tumor cells: Renal Cancer TK-10; conditions: TK-10 (Renal Cancer), 10^−4 molar
Experimental: (§2) In the NCI screening process, each compound was tested and described by a minimum of 60 data points. The test data include, but are not limited to the type of cancer, the molar concentration used in the screen, and the percent growth of the cancer. In some cases, NMR and elemental analysis were used for structural assignment.

[18] = test system: HT29; assay: NCI screen, growth of human tumor cells: Colon Cancer HT29; conditions: HT29 (Colon Cancer), 10^−4 molar
Outline: as §1

[19] = test system: SF-268; assay: NCI screen, growth of human tumor cells: CNS Cancer SF-268; conditions: SF-268 (CNS Cancer), 10^−4 molar
Outline: as §1

[20] = test system: SF-539; assay: NCI screen, growth of human tumor cells: CNS Cancer SF-539; conditions: SF-539 (CNS Cancer), 10^−4 molar
Outline: as §1

[21] = test system: RPMI-8226; assay: NCI screen, growth of human tumor cells: Leukemia RPMI-8226
Outline: as §1

[22] = test system: SK-MEL-2; assay: NCI screen, growth of human tumor cells: Melanoma SK-MEL-2; conditions: SK-MEL-2, 10^−4 molar
Outline: as §1

[23] = test system: HL-60 (TB); assay: NCI screen, growth of human tumor cells: Leukemia HL-60 (TB); conditions: HL-60 (TB) (Leukemia), 10^−4 molar
Experimental: as §2

[24] = test system: XF 498; assay: NCI screen, growth of human tumor cells: CNS Cancer XF 498; conditions: XF 498 (CNS Cancer), 10^−4 molar
Experimental: (§3) The compounds listed in Section II are arranged by their NSC number followed by the percent of growth of human tumor cells when the compound is administrated at 10^−4 molar concentration.
as §2

[25] = test system: 786-0; assay: NCI screen, growth of human tumor cells: Renal Cancer 786-0; conditions: 786-0, 10^−4 molar
Outline: as §1

[26] = test system: NCI-H23; assay: NCI screen, growth of human tumor cells: Non-Small Cell Lung NCI-H23
Outline: as §1

[27] = test system: KM12; assay: NCI screen, growth of human tumor cells: Colon Cancer KM12; conditions: KM12 (Colon Cancer), 10^−4 molar
Outline: as §1

[28] = test system: SW620; assay: NCI screen, growth of human tumor cells: Colon Cancer SW620; conditions: SW620, 10^−4 molar
Outline: as §1

[29] = test system: HCC-2998; assay: NCI screen, growth of human tumor cells: HCC-2998 (listed under Non-Small Cell Lung); conditions: HCC-2998, 10^−4 molar
Outline: as §1

[30] = test system: HOP-92; assay: NCI screen, growth of human tumor cells: Non-Small Cell Lung HOP-92; conditions: HOP-92, 10^−4 molar
Outline: as §1

[31] = test system: DMS273; assay: NCI screen, growth of human tumor cells: Small Cell Lung Cancer DMS273; conditions: 10^−4 molar
Experimental: as §3, §2

[32] = test system: UO-31; assay: NCI screen, growth of human tumor cells: Renal Cancer UO-31; conditions: UO-31, 10^−4 molar
Outline: as §1

[33] = test system: NCI-H522; assay: NCI screen, growth of human tumor cells: Non-Small Cell Lung NCI-H522; conditions: NCI-H522 (Non-Small Cell Lung), 10^−4 molar
Outline: as §1

[34] = test system: IGROVI; assay: NCI screen, growth of human tumor cells: Ovarian Cancer IGROVI; conditions: IGROVI (Ovarian Cancer), 10^−4 molar
Outline: as §1

[35] = test system: OVCAR-3; assay: NCI screen, growth of human tumor cells: Ovarian Cancer OVCAR-3; conditions: OVCAR-3 (Ovarian Cancer), 10^−4 molar
Outline: as §1

[36] = test system: AS49/ATCC; assay: NCI screen, growth of human tumor cells: Non-Small Cell Lung AS49/ATCC; conditions: AS49/ATCC (Non-Small Cell Lung), 10^−4 molar
Outline: as §1

[37] = test system: SR; assay: NCI screen, growth of human tumor cells: Leukemia SR; conditions: SR
Outline: as §1

[38] = test system: SF-295; assay: NCI screen, growth of human tumor cells: CNS Cancer SF-295; conditions: SF-295 (CNS Cancer), 10^−4 molar
Outline: as §1

[39] = test system: DMS114; assay: NCI screen, growth of human tumor cells: Small Cell Lung Cancer DMS114; conditions: 10^−4 molar
Experimental: as §3, §2

[40] = test system: EKVX; assay: NCI screen, growth of human tumor cells: Non-Small Cell Lung EKVX; conditions: EKVX (Non-Small Cell Lung), 10^−4 molar
Outline: as §1

[41] = test system: SNB-78; assay: NCI screen, growth of human tumor cells: CNS Cancer SNB-78; conditions: SNB-78 (CNS Cancer), 10^−4 molar
Experimental: as §3, §2

[42] = test system: UACC-257; assay: NCI screen, growth of human tumor cells: Melanoma UACC-257; conditions: UACC-257 (Melanoma), 10^−4 molar
Outline: as §1

[43] = test system: RXF-631; assay: NCI screen, growth of human tumor cells: Renal Cancer RXF-631; conditions: RXF-631 (Renal Cancer), 10^−4 molar
Experimental: as §3, §2

[44] = test system: LOXIMVI; assay: NCI screen, growth of human tumor cells: Melanoma LOXIMVI; conditions: LOXIMVI, 10^−4 molar
Outline: as §1

[45] = test system: SK-OV-3; assay: NCI screen, growth of human tumor cells: Ovarian Cancer SK-OV-3; conditions: SK-OV-3 (Ovarian Cancer), 10^−4 molar
Outline: as §1

[46] = test system: MALME-3M; assay: NCI screen, growth of human tumor cells: Melanoma MALME-3M; conditions: MALME-3M, 10^−4 molar
Outline: as §1

[47] = test system: HOP-62; assay: NCI screen, growth of human tumor cells: Non-Small Cell Lung HOP-62; conditions: HOP-62, 10^−4 molar
Outline: as §1

[48] = test system: MOLT-4; assay: NCI screen, growth of human tumor cells: Leukemia MOLT-4; conditions: MOLT-4 (Leukemia), 10^−4 molar
Outline: as §1

O=S1(=O)OCCOS(=O)(=O)C1(I)I [NSC 648308, ethylene diiodomethanedisulfonate]
percent of growth of human tumor cells [1]: −16%
percent of growth of human tumor cells [2]: −39%
percent of growth of human tumor cells [3]: −36%
% Growth [4]: −100%
% Growth [5]: −91%
% Growth ([6]; LXFL529, 10^−4 molar): −72%
% Growth ([6]; LXFL529, 10^−5 molar): 55%
% Growth [7]: −61%
percent of growth of human tumor cells [8]: −25%
% Growth [9]: −71%
% Growth [10]: −91%
% Growth ([11]; 10^−4 molar): −44%
% Growth ([11]; 10^−5 molar): 55%
percent of growth of human tumor cells [12]: −29%
% Growth [13]: −100%
percent of growth of human tumor cells [14]: −61%
% Growth [15]: −82%
percent of growth of human tumor cells [16]: −45%
percent of growth of human tumor cells [17]: −19%
percent of growth of human tumor cells [18]: −18%
percent of growth of human tumor cells [19]: −11%
percent of growth of human tumor cells [20]: −25%
% Growth ([21]; RPMI-8226, 10^−4 molar): −37%
% Growth ([21]; RPMI-8226, 10^−5 molar): 48%
% Growth [22]: −80%
percent of growth of human tumor cells [23]: −16%
percent of growth of human tumor cells [24]: −67%
% Growth [25]: −95%
% Growth ([26]; NCI-H23, 10^−4 molar): −70%
% Growth ([26]; NCI-H23, 10^−5 molar): 56%
percent of growth of human tumor cells [27]: −58%
% Growth [28]: −55%
% Growth [29]: −99%
% Growth [30]: −78%
percent of growth of human tumor cells [31]: −45%
% Growth [32]: −95%
percent of growth of human tumor cells [33]: −45%
percent of growth of human tumor cells [34]: −24%
percent of growth of human tumor cells [35]: −14%
percent of growth of human tumor cells [36]: −17%
% Growth ([37]; 10^−4 molar): −37%
% Growth ([37]; 10^−5 molar): 48%
percent of growth of human tumor cells [38]: −4%
percent of growth of human tumor cells [39]: −46%
percent of growth of human tumor cells [40]: −35%
percent of growth of human tumor cells [41]: −6%
percent of growth of human tumor cells [42]: −54%
percent of growth of human tumor cells [43]: −44%
% Growth [44]: −93%
percent of growth of human tumor cells [45]: −49%
% Growth [46]: −80%
% Growth [47]: −69%
percent of growth of human tumor cells [48]: −22%
